Data reported in patent US4539319A (priority 1982, dated 1985).
Values joined by “and” are separate entries in the source; they are usually repeats but may differ in a detail not shown here. Identical values can stand only once. Counter-ions that a name gives are not always drawn. Like-named read-outs stand apart in the source and are kept apart here.

Columns and labels:
ST from E coli P16 = tested on: ST from E coli P16; parameters: species or system mice; settings: mouse, in vivo
ST from E coli P155 = tested on: ST from E coli P155; parameters: species or system mice; settings: mouse, in vivo
ST from E coli 431 = tested on: ST from E coli 431; parameters: species or system mice; settings: mouse, in vivo
8 Bromo cyclic GMP = tested on: 8 Bromo cyclic GMP; parameters: species or system mice; settings: mouse, in vivo
[1] = tested on: enterotoxin induced secretion; test: animal or person; assay type: in vivo, mice; settings: Mus musculus, po
[2] = Determination of Therapeutic Ratios: LD50 in suckling 8 day old mice; settings: mouse, in vivo
Method: LD50 determinations were made by dosing groups of suckling 8 day old mice with appropriate concentrations orally. Deaths were noted over a 7 day period and LD50s calculated using a probit regression program. ED50 determinations were carried out by dosing groups of 6-8 day old mice with appropriate concentrations orally. The percentage fluid inhibition was determined as above and ED50s calculated using a log/linear regression analysis and the formula given in the British Pharmacopoeia.
For computation of T.R.'s the standard errors of ED50 values were corrected to normalise the errors and the T.R.'s expressed as the ratio (LD50 /ED50) and standard deviation range (Table 3).

E coli B44 = test: Protection of Neonatal Mice from Lethal Enteropathogenic E coli Infection; assay type: in vivo, E coli B44 infection in 4 day old mice; settings: 10 mg/kg b.i.d.; for % mortality in mice dosed with compound: n = 60; for % Reduction in mortality: versus placebo
Method: 4 day old mice were orally dosed with 50 μl of phosphate buffered saline containing 1×10^5 organisms/ml of E coli B44. The mice were then dosed b.i.d. with either placebo or drug for four days commencing 16 hours after infection. The animals were left with their mothers throughout the experiment and a daily record of deaths was made. The experiment was terminated when no mortality was seen over a 24 hour period. (Usually 7-10 days after infection). The mortality in the drug group was then compared with the mortality in the placebo group using the following formula:
% Reduction in mortality=[(MP -MD)/MP]× 100
MP =mortality in group having placebo
MD =mortality in group receiving drug
Statistical analysis was performed using 2×2 contingency tables (single tailed `p`).

[3] = tested on: enterotoxin (culture filtrate) from enteropathogenic E coli strain P16; parameters: species or system piglets; settings: in vivo; hydrochloride

CCCCN(CCCC)C(=N)c1ccc(OC(C)C)c2c1CCCC2 [Example 14, N',N'-di-n-butyl-4-isopropyloxy-5,6,7,8-tetrahydro-1-naphthamidine, hydrochloride]
% inhibition (ST from E coli P16): 52%

4-Methoxy-N,N-di-amylamine-5,6,7,8-tetrahydro-1-naphthamidine, hydrochloride [Example 13]
% inhibition (ST from E coli P16; hydrochloride): 38% and 33%

CCCCN(CCCC)C(=N)c1ccc(OC)c2c1CCCC2 [Example 11, N',N'-Di-n-butyl-4-methoxy-5,6,7,8-tetrahydro-1-naphthamidine, hydrochloride]
% inhibition (Table 2) (ST from E coli P16): 59% | % inhibition (ST from E coli P16; hydrochloride): 59% and 32% | % inhibition (ST from E coli P155): 31% | % inhibition (ST from E coli 431): 47% | % inhibition (8 Bromo cyclic GMP): 42% | ED50 [1]: 16 mg/kg | selectivity ratio ([2]; po, therapeutic ratio (T.R.), standard errors of ED50 corrected, range (3.9-8.1)): 5.6 | LD50 at 168 h ([2]; oral, 8 day old mice, deaths over 7 days, range (83-91)): 87 mg/kg | % mortality in mice dosed with compound (E coli B44; day 2 post infection, control 31): 25% | % Reduction in mortality (E coli B44; day 2 post infection): 18% | % mortality in mice dosed with compound (E coli B44; day 3 post infection, control 68, *P < 0.05): 47% | % Reduction in mortality (E coli B44; day 3 post infection): 31% | % mortality in mice dosed with compound (E coli B44; day 4 post infection, control 79, **P < 0.01): 53% | % Reduction in mortality (E coli B44; day 4 post infection): 33% | % mortality in mice dosed with compound (E coli B44; day 5 post infection, control 84, ***P < 0.001): 57% | % Reduction in mortality (E coli B44; day 5 post infection): 32% | % mortality in mice dosed with compound (E coli B44; day 6 post infection, control 84, **P < 0.01): 58% | % Reduction in mortality (E coli B44; day 6 post infection): 30% | % mortality in mice dosed with compound (E coli B44; day 7 post infection, control 84, **P < 0.01): 58% | % Reduction in mortality (E coli B44; day 7 post infection): 30% | Mean scour score during 7 hr observation period ± SEM [3]: 2.1 ± 0.3 and 1.2 ± 0.2

COc1ccc(C(=N)N2CCCCC2)c2c1CCCC2.Cl [Example 10, 1-[Imino(4-methoxy-5,6,7,8-tetrahydro-1-naphthyl)-methyl]piperidine, hydrochloride]
% inhibition (ST from E coli P16; hydrochloride): 33% and 35%

CN(C)C(=N)c1ccc(OCc2ccccc2)c2c1CCCC2 [Example 15, 4-Benzyloxy-N',N'-dimethyl-5,6,7,8-tetrahydro-1-naphthamidine, hydrochloride]
% inhibition (ST from E coli P16; hydrochloride): 39% and 22%

CCCN(CCC)C(=N)c1ccc(OC)c2c1CCCC2 [Example 9, 4-methoxy-N',N'-di-n-propyl-5,6,7,8-tetrahydro-1-naphthamidine, hydrochloride]
% inhibition (ST from E coli P16; hydrochloride): 43% and 29%

CCCCN(CCCC)C(=N)c1ccc(O)c2c1CCCC2 [Example 16, N',N'-di-n-butyl-4-hydroxy-5,6,7,8-tetrahydro-1-naphthamidine hydrochloride]
% inhibition (ST from E coli P16; hydrochloride): 58% and 41%

CCCCN(CCCC)C(=N)c1ccc(OCc2ccccc2)c2c1CCCC2 [Example 12, N',N'-Di-n-butyl-4-benzyloxy-5,6,7,8-tetrahydro-1-naphthamidine, hydrochloride]
% inhibition (ST from E coli P16; hydrochloride): 70% and 52%
